The text below walks through data of patent US5256700A (priority 1990, dated 1993).

For one series, the system named is DNA. Kind of series: Degradation of DNA caused by free radicals.
Series [1] concerns simple herpes of type 1 (HSV1). Kind of series: Antiviral activity in vitro, test 1 (titer after 2 h incubation), HSV1. The note with it: control 10^5. The class given is cell-based, HSV1 (cultured on VERO cell line).
For series [2] the following is noted: Brieskorn and Domling 1969; cited from earlier work.
For series [3], the system named is simple herpes of type 2 (HSV2). Kind of series: Antiviral activity in vitro, test 1 (titer after 2 h incubation), HSV2. The class given is cell-based, HSV2 (cultured on VERO cell line). The note with it: control 10^4.
The test system of series [4] is simple herpes of type 1 (HSV1). Kind of series: Antiviral activity in vitro, test 2 (viral production after 4 days), HSV1. The format is cell-based, HSV1 (cultured on VERO cell line). The note with it: for Number of viral particles/0.025 ml supernatant, Test 2 HSV1: control 2 × 10^8.
Series [5] concerns certain microorganisms responsible for dental caries and bad breath. The note with it: CA 97, 84835q; cited from earlier work.
The nature of the next series: Chemical stability. The class given is physicochemical.
Series [6] has as its system simple herpes of type 2 (HSV2). The series is described as follows: Antiviral activity in vitro, test 2 (viral production after 4 days), HSV2. The settings on record: for Number of viral particles/0.025 ml supernatant, Test 2 HSV2: control 10^7. The format is cell-based, HSV2 (cultured on VERO cell line).

Take `CC(C)c1cc2c(c(O)c1O)[C@@]1(C(=O)O)CCCC(C)(C)[C@@H]1CC2` [Carnosic acid]: the “effect on the degradation of DNA caused by the free radicals” value in the series on DNA is given as “inhibiting effect”. For the same compound, the “Number of viral particles/0.025 ml supernatant, Test 1 HSV1” value in series [1] (0.62 μg/ml) is recorded as 10^4 viral particles/0.025 ml supernatant; in series [1] (1.25 μg/ml) it was 10^3 viral particles/0.025 ml supernatant; in [1] (2.5 μg/ml), 10 viral particles/0.025 ml supernatant; in series [1] (5 μg/ml), 10 viral particles/0.025 ml supernatant. In addition, the “antioxidant activity” value in [2] is “powerful antioxidant”. Moreover, the “Number of viral particles/0.025 ml supernatant, Test 1 HSV2” value in [3] (0.62 μg/ml), in series [3] (1.25 μg/ml), in series [3] (2.5 μg/ml) and in [3] (5 μg/ml) was 10 viral particles/0.025 ml supernatant in each case. Further, the “Number of viral particles/0.025 ml supernatant, Test 2 HSV1” value in series [4] (0.62 μg/ml) is 6 × 10^6 viral particles/0.025 ml supernatant; in [4] (1.25 μg/ml), 2.5 × 10^6 viral particles/0.025 ml supernatant; in series [4] (2.5 μg/ml), 10^5 viral particles/0.025 ml supernatant; in series [4] (5 μg/ml), 10^2 viral particles/0.025 ml supernatant. In series [4] (test 2), the “production of HSV1” value is “greatly affected”. Besides, the “antibiotic activity against microorganisms responsible for dental caries and bad breath” value in series [5] was “against certain microorganisms responsible for dental caries and bad breath”. Moreover, the “sensitivity to oxidation” value in “Chemical stability” (like any catechol-type molecule) is given as “highly sensitive to oxidation”. In “Chemical stability” (purified and crystallized form), the “stability, purified and crystallized form” value is reported as “stable”. Besides, the “Number of viral particles/0.025 ml supernatant, Test 2 HSV2” value in series [6] (0.62 μg/ml) is 8 × 10^5 viral particles/0.025 ml supernatant; in series [6] (1.25 μg/ml) it was 10^5 viral particles/0.025 ml supernatant; in series [6] (2.5 μg/ml), 2 × 10^2 viral particles/0.025 ml supernatant; in series [6] (5 μg/ml), < 10 viral particles/0.025 ml supernatant. In series [6] (test 2), the “production of HSV2” value is given as “greatly affected”. Besides, in the series on VERO cell line, the “cell toxicity” value was “absence of cell toxicity”.
